Measurements reported in patent US8062995B2, “Dioxazine-substituted arylamides” (Bayer CropScience AG, priority 2005, dated 2011).

Tests used:
[1] = system: green peach aphid (Myzus persicae); assay: Myzus test (MYZUPE spray treatment); type: in vivo; details: for Kill rate after 5d in %: 100 g/ha, spray treatment
Experimental: Myzus Test (MYZUPE Spray Treatment) Solvents: 78 parts by weight of acetone • • 1.5 parts by weight of dimethylformamide Emulsifier: 0.5 part by weight of alkylaryl polyglycol ether To produce a suitable preparation of active compound, 1 part by weight of active compound is mixed with the stated amounts of solvents and emulsifier and the concentrate is diluted with emulsifier-containing water to the desired concentration. Discs of Chinese cabbage (Brassica pekinensis), which are infested by all stages of the green peach aphid (Myzus persicae) are sprayed with an active compound preparation of the desired concentration. After the desired period of time, the activity in % is determined. 100% means that all aphids have been killed; 0% means that none of the aphids have been killed.

[2] = system: caterpillars of the army worm (Spodoptera frugiperda); assay: Spodoptera frugiperda test (SPODFR spray treatment); type: in vivo; details: for Kill rate after 7d in %: 100 g/ha, spray treatment
Experimental: Spodoptera frugiperda Test (SPODFR Spray Treatment) Solvents: 78 parts by weight of acetone • • 1.5 parts by weight of dimethylformamide Emulsifier: 0.5 part by weight of alkylaryl polyglycol ether To produce a suitable preparation of active compound, 1 part by weight of active compound is mixed with the stated amounts of solvents and emulsifier and the concentrate is diluted with emulsifier-containing water to the desired concentration. Discs of maize leaves (Zea mays) are sprayed with an active compound preparation of the desired concentration and after drying populated with caterpillars of the army worm (Spodoptera frugiperda). After the desired period of time, the activity in % is determined. 100% means that all of the caterpillars have been killed; 0% means that none of the caterpillars have been killed.

[3] = logP determination by HPLC (reversed-phase C18), EEC Directive 79/831 Annex V.A8; type: physicochemical; details: HPLC reversed-phase C18, 43° C., acidic range pH 2.7
Experimental: The logP values given in the tables and Preparation Examples above are determined in accordance with EEC Directive 79/831 Annex V.A8 by HPLC (High Performance Liquid Chromatography) on a reversed-phase column (C 18). Temperature: 43° C. The determination by LC-MS in the acidic range is carried out at pH 2.7 using 0.1% aqueous formic acid and acetonitrile (contains 0.1% formic acid) as mobile phases; linear gradient from 10% acetonitrile to 95% acetonitrile. Calibration is carried out using unbranched alkan-2-ones (having 3 to 16 carbon atoms) with known logP values (determination of the logP values by the retention times using linear interpolation between two successive alkanones).

[4] = system: larvae of the mustard beetle (Phaedon cochleariae); assay: Phaedon test (sprayed Chinese cabbage discs); type: in vivo; details: for Kill rate after 7d in %: 100 g/ha
Experimental: Phaedon Test Solvents: 78 parts by weight of acetone • • 1.5 parts by weight of dimethylformamide Emulsifier: 0.5 part by weight of alkylaryl polyglycol ether To produce a suitable preparation of active compound, 1 part by weight of active compound is mixed with the stated amounts of solvents and emulsifier and the concentrate is diluted with emulsifier-containing water to the desired concentration. Discs of Chinese cabbage (Brassica pekinensis) are sprayed with an active compound preparation of the desired concentration and, after drying, populated with larvae of the mustard beetle (Phaedon cochleariae). After the desired period of time, the activity in % is determined. 100% means that all beetle larvae have been killed; 0% means that none of the beetle larvae have been killed.

SMILES | logP [3] | activity in the Myzus test, spray treatment (in words) [1] | Kill rate after 5d in % [1] | activity in the Spodoptera frugiperda test, spray treatment (in words) [2] | Kill rate after 7d in % [2] | activity in the Phaedon test (in words) [4] | Kill rate after 7d in % [4]
O=C(Nc1c(Cl)cc(Cl)cc1C1=NOCCO1)c1cc(Cl)nn1-c1ncccc1Cl [Example I-1-2] | 3.07 | good activity | 80% | good activity | 100% | good activity | 100%
Cc1cccc(C2=NOCCO2)c1NC(=O)c1cc(Br)nn1-c1ncccc1Cl [Example I-1-4] | 2.59 |  |  | good activity | 100% |  | 
Cc1cc(Br)cc(C2=NOCCO2)c1NC(=O)c1cc(Br)nn1-c1ncccc1Cl [Example I-1-12] | 3.24 |  |  | good activity | 100% | good activity | 100%
O=C(Nc1c(Cl)cc(Cl)cc1C1=NOCCO1)c1cc(Br)nn1-c1c(Cl)cccc1Cl [Example I-1-13] | 3.98 |  |  |  |  | good activity | 100%
Cc1cc(Cl)cc(C2=NOCCO2)c1NC(=O)c1cc(C(F)(F)F)nn1-c1ncccn1 [Example I-1-14] | 2.79 |  |  |  |  |  | 
O=C(Nc1c(Cl)cc(Cl)cc1C1=NOCCO1)c1cc(C(F)(F)F)nn1-c1ncccn1 [Example I-1-15] | 2.80 |  |  |  |  |  | 
O=C(Nc1c(Cl)cc(Cl)cc1C1=NOCCO1)c1cc(Br)cn1-c1ncccc1Cl [Example I-1-21] | 3.48 |  |  | good activity | 100% | good activity | 100%
Cc1cc(Cl)cc(C2=NOCCO2)c1NC(=O)c1cc(Br)cn1-c1ncccc1Cl [Example I-1-25] | 3.50 |  |  | good activity | 83% | good activity | 83%
Cc1cc(I)cc(C2=NOCCN2)c1NC(=O)c1cc(Cl)nn1-c1ncccc1Cl [Example I-1-26] | 2.44 | good activity | 100% | good activity | 100% | good activity | 100%

Second part, led by results:

logP [3] | SMILES | activity in the Myzus test, spray treatment (in words) [1] | Kill rate after 5d in % [1] | activity in the Spodoptera frugiperda test, spray treatment (in words) [2] | Kill rate after 7d in % [2] | activity in the Phaedon test (in words) [4] | Kill rate after 7d in % [4]
1.89 | O=C(Nc1c(Cl)cccc1C1=NOCCN1)c1cc(Br)nn1-c1ncccc1Cl [Example I-1-27] |  |  |  |  |  | 
1.83 | Cc1cccc(C2=NOCCN2)c1NC(=O)c1cc(Br)cn1-c1ncccc1Cl [Example I-1-28] |  |  | good activity | 100% | good activity | 100%
2.80 | Cc1cc(Br)cc(C2=NOCCN2)c1NC(=O)c1cc(C(F)(F)F)nn1-c1ncccc1Cl [Example I-1-29] | good activity | 100% | good activity | 100% | good activity | 100%
2.35 | Cc1cc(Br)cc(C2=NOCCN2)c1NC(=O)c1cc(Cl)nn1-c1ncccc1Cl [Example I-1-30] | good activity | 100% | good activity | 100% | good activity | 100%
